Experiments:
[1] = system: K. pneumoniae NCTC 5055 (wt); assay: Meropenem MIC with and without inhibitor; type: cell-based; conditions: Klebsiella pneumoniae, NCTC5055, read-out: Meropenem MIC in the absence of inhibitor
Description: (§1) Further studies were carried out to determine if ML302F/ML302 potentiates β-lactam antibiotic activity in clinically derived strains containing IMP-1, IMP-4, VIM-4 or NDM-1, which are the most commonly observed MBLs in clinical isolates. All strains producing MBLs were confirmed as resistant to meropenem at the Clinical and Laboratory Standards Institute (U.S.A.) defined breakpoint of 8 μg/mL for Enterobacteriace (see Table 2 below). The minimum inhibitory concentration (MIC) of meropenem against wildtype and MBL producing Escherichia coli and Klebsiella pneumoniae strains was determined with and without increasing concentrations of ML302 or ML302F. Clinical and Laboratory Standards Institute. 2012. Methods for dilution antimicrobial susceptibility tests for bacteria that grow aerobically; 9th ed. Approved standard M07-A9. CLSI, Wayne, Pa.; and Clinical and Laboratory Standards Institute. 2012. Performance standards for antimicrobial susceptibility testing; 22nd informational supplement M100-S22. CLSI, Wayne, Pa.

E. coli 25722 (wt) = assay: Meropenem MIC with and without inhibitor; type: cell-based; conditions: Escherichia coli, read-out: Meropenem MIC in the absence of inhibitor
Description: as §1

## C[C@@H](O)[C@H]1C(=O)N2C(C(=O)O)=C(S[C@@H]3CN[C@H](C(=O)N(C)C)C3)[C@H](C)[C@H]12 [Meropenem, meropenem]
[1]
  MIC: ≤ 0.25 µg/mL
E. coli 25722 (wt)
  MIC: ≤ 0.25 µg/mL

— US10351525B2, “Beta lactamase inhibitors” (Oxford University Innovation Limited, priority 2014, dated 2019)
